The source of these data is patent US20100144712A1 (priority 2007, published 2010).

Converted amounts (≈) assume the structure as drawn. Read-outs that look alike come from different tables or passages of the source.

What all share (assay type): cell-based
Assay [1] deals with Aspergillus fumigatus (ATCC 16424). The experiment in a line: In vitro antifungal activity (MIC80), Aspergillus fumigatus ATCC 16424. The note with it: Aspergillus fumigatus, read-out: Minimal inhibitory concentration (MIC80). An outline of the steps: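 Broth dilution in RPMI 1640 with 2% (v/v) final DMSO; A. fumigatus inoculum from Malt Extract Agar subculture diluted 1000-fold to 0.4×10^2˜5×10^4 CFU/ml, alamarblue added, repeated 2 times. MIC80 is lowest concentration reducing growth 80% versus untreated control.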

For assay [2], the system named is Candida albican ATCC 90873. The experiment in a line: In vitro antifungal activity (MIC80), Candida albican ATCC 90873. As to conditions: Candida, ATCC90873; Table 2, ATCC 90873; read-out: Minimal inhibitory concentration (MIC80). An outline of the steps:
(§1)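 Broth microdilution in RPMI 1640 with 2% (v/v) final DMSO, test solutions 0.25 to 256 […]. Inoculum of 1.0×10^3–5.0×10^3 CFU/ml came from colonies grown 2–3 days at 35 °C, and alamarBlue was added. MIC80 is the lowest concentration reducing growth by 80% versus untreated control.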

The test system of assay [3] is Candida albican ATCC 96901. The experiment in a line: In vitro antifungal activity (MIC80), Candida albican ATCC 96901. The note with it: Candida, ATCC96901; Table 2, ATCC 96901; read-out: Minimal inhibitory concentration (MIC80). An outline of the steps: as §1
In assay [4] the test system is Candida albican ATCC MYA-1003. The experiment in a line: In vitro antifungal activity (MIC80), Candida albican ATCC MYA-1003. The note with it: Candida; Table 2, MYA 1003; read-out: Minimal inhibitory concentration (MIC80). A digest of the protocol: as §1
Assay [5] has as its system Candida albican ATCC 62342. The experiment in a line: In vitro antifungal activity (MIC80), Candida albican ATCC 62342. As to conditions: Candida, ATCC62342; Table 2, 62342; read-out: Minimal inhibitory concentration (MIC80). A digest of the protocol:
as §1

Assay [6] relates to Candida albican ATCC 64124. The experiment in a line: In vitro antifungal activity (MIC80), Candida albican ATCC 64124. The note with it: Candida, ATCC64124; Table 2, 64124; read-out: Minimal inhibitory concentration (MIC80). A digest of the protocol:
as §1

Assay [7] deals with Candida albican ATCC 64550. The experiment in a line: In vitro antifungal activity (MIC80), Candida albican ATCC 64550. The note with it: Candida, ATCC64550; Table 2, 64550; read-out: Minimal inhibitory concentration (MIC80). A digest of the protocol:
as §1

For assay [8], the system named is Candida albican ATCC MYA-573. The experiment in a line: In vitro antifungal activity (MIC80), Candida albican ATCC MYA-573. The note with it: Candida; Table 2, MYA 573; read-out: Minimal inhibitory concentration (MIC80). A digest of the protocol: as §1
Assay [9] has as its system Candida albican ATCC MYA-574. The experiment in a line: In vitro antifungal activity (MIC80), Candida albican ATCC MYA-574. The note with it: Candida; Table 2, MYA 574; read-out: Minimal inhibitory concentration (MIC80). An outline of the steps:
as §1

The subject of assay [10] is Candida albican ATCC MYA-575. The experiment in a line: In vitro antifungal activity (MIC80), Candida albican ATCC MYA-575. The note with it: Candida; Table 2, MYA 575; read-out: Minimal inhibitory concentration (MIC80). An outline of the steps:
as §1

In assay [11] the test system is Candida albican ATCC MYA-576. The experiment in a line: In vitro antifungal activity (MIC80), Candida albican ATCC MYA-576. The note with it: Candida; Table 2, MYA 576; read-out: Minimal inhibitory concentration (MIC80). A digest of the protocol: as §1
The test system of assay [12] is Aspergillus fumigatus MYA-1163. The experiment in a line: In vitro antifungal activity (MIC80), Aspergillus fumigatus MYA-1163. The note with it: Aspergillus fumigatus, MYA1163; Table 3, MYA-1163; read-out: Minimal inhibitory concentration (MIC80). As for the experimental part: (§2) In vitro antifungal activities of the inventive antifungal compounds were evaluated using test strains including Candida albican (ATCC 90873, 204276, 62342, 64124, 64550, 96901, MYA-573, MYA-574, MYA-575, MYA-576, MYA-1003) and Aspergillus fumigatus (ATCC 16424). Test samples and positive control samples were prepared by dissolving the inventive compounds and comparative compounds, i.e., amphotericin B, fluconazole and itraconazole, in DMSO, respectively, and each successively diluted with medium to obtain test and positive control solutions having test compound concentrations of 0.125 μg/ml to a maximum concentration not generating turbidity. Minimal inhibitory concentration (MIC80) of each compound was determined as the lowest concentration of the test compounds required to reduce growth by 80% relative to a control strain not treated.
(§3) 3) Preparation of test samples: the inventive compounds and comparative compounds were each diluted with DMSO to obtain 1 to 2 ml of a test sample in a concentration of 100-folds of the determining maximum concentration (256 μg/ml).
(§4) The test samples were each successively diluted with RPMI 1640 to obtain test solutions having concentrations of […] in a 12×75 mm sterilized disposable culture tube. The final concentration of DMSO was adjusted to […] (v/v).
(§5) Candida albican strains were each subcultured in Sabourad Dextrose Agar, YM Agar or Potato Dextrose Agar medium at 35° C. for 2˜3 days. In the case of yeasts, a single colony was taken from prominent colonies and suspended in 0.85% sterile physiological saline solution and the turbidity of the suspension was adjusted to 80˜82% at 530 nm, and then diluted 50-fold with RPMI 1640 medium to 1.0×10^3˜5.0×10^3 CFU/ml. The turbidity of fungi was adjusted to 80˜82% and the suspension was diluted 50-fold to […]. Aspergillus fumigatus strains were subcultured in Malt Extract Agar for 7˜10 days, and a single colony was taken from prominent colonies and suspended in 0.85% sterile physiological saline solution and the suspension was adjusted to 0.108 at 530 nm, and then diluted 1000-fold with RPMI 1640 medium to 0.4×10^2˜5×10^4 CFU/ml. The turbidity of fungi was adjusted to 80˜82% and the suspension was diluted 50-fold to 0.4102˜0.5104 CFU/ml.
(§6) The strain solutions thus obtained were each seeded into a sterilized 96-well microplate, 0.1 ml of each test solution were added thereto, and […] of alamarblue was treated to each well (Biosource, #DAL1100). This procedure was repeated 2 times.
(§7) Minimal inhibitory concentration (MIC80) of each compound was determined as the lowest concentration of the test compounds required to reduce growth by 80% relative to a control strain not treated.
(§8) MIC80 of each of the compounds of which antifungal activities can be confirmed by Table 2 was determined using other test strains, i.e., Aspergillus fumigatus ATCC 16424 and MYA-1163, Aspergillus terreus ATCC 28301, Aspergillus flavus ATCC MYA-1004, and Aspergillus niger ATCC 9142.

Assay [13] relates to Aspergillus flavus ATCC MYA-1004. The experiment in a line: In vitro antifungal activity (MIC80), Aspergillus flavus ATCC MYA-1004. The note with it: Aspergillus flavus; Table 3, MYA-1004; read-out: Minimal inhibitory concentration (MIC80). As to the method:
as §2, §3, §4, §5, §6, §7, §8

In assay [14] the test system is Aspergillus terreus ATCC 28301. The experiment in a line: In vitro antifungal activity (MIC80), Aspergillus terreus ATCC 28301. The note with it: Aspergillus terreus, ATCC28301; Table 3, ATCC 28301; read-out: Minimal inhibitory concentration (MIC80). As for the experimental part: as §2, §3, §4, §5, §6, §7, §8
The test system of assay [15] is Aspergillus niger ATCC 9142. The experiment in a line: In vitro antifungal activity (MIC80), Aspergillus niger ATCC 9142. The note with it: Aspergillus niger, ATCC9142; Table 3, ATCC 9142; read-out: Minimal inhibitory concentration (MIC80). As to the method: as §2, §3, §4, §5, §6, §7, §8

On to `OC(Cn1cncn1)(Cn1cncn1)c1ccc(F)cc1F` [F, fluconazole, reference compound], for which the MIC80 in assay [1] (ATCC16424, Table 2, ATCC 16424) was more than 128 µg/mL; in assay [1] (ATCC16424, Table 3, ATCC 16424) it was more than 128 µg/mL; in [2], 4 µg/mL (≈ 13.1 µM); in assay [3] it was more than 128 µg/mL; in assay [4] it was more than 128 µg/mL; in assay [5], 8 µg/mL (≈ 26.1 µM). Moreover, the MIC80 in assay [6] was more than 128 µg/mL; in [7], 32 µg/mL (≈ 104 µM); in [8] it was more than 128 µg/mL; in assay [9], more than 128 µg/mL; in assay [10] it was 16 µg/mL (≈ 52.2 µM); in [11] it was 64 µg/mL (≈ 209 µM). Moreover, the MIC80 in [12], in [13], in assay [14] and in [15] was more than 128 µg/mL each time.

As for `CCC(C)n1ncn(-c2ccc(N3CCN(c4ccc(OCC5COC(Cn6cncn6)(c6ccc(Cl)cc6Cl)O5)cc4)CC3)cc2)c1=O` (centres unmarked) [I, itraconazole, reference compound], the MIC80 in assay [1] (ATCC16424, Table 2, ATCC 16424) was 0.25 µg/mL (≈ 0.354 µM); in assay [1] (ATCC16424, Table 3, ATCC 16424), 0.125 µg/mL (≈ 0.177 µM); in assay [2], 0.125 µg/mL (≈ 0.177 µM); in [3], more than 128 µg/mL; in [4] it was more than 128 µg/mL; in assay [5] it was 0.25 µg/mL (≈ 0.354 µM). Besides, the MIC80 was more than 128 µg/mL in assay [6]; 0.5 µg/mL (≈ 0.709 µM) in [7]; 0.5 µg/mL (≈ 0.709 µM) in assay [8]; more than 128 µg/mL in assay [9]; 0.125 µg/mL (≈ 0.177 µM) in [10]; 0.125 µg/mL (≈ 0.177 µM) in assay [11]. The MIC80 in assay [12] turned out to be 0.5 µg/mL (≈ 0.709 µM); in assay [13], 0.25 µg/mL (≈ 0.354 µM); in assay [14] it was 0.25 µg/mL (≈ 0.354 µM); in assay [15], 1 µg/mL (≈ 1.42 µM).
